Results taken from patent US20250339569A1, “CARBONIC ANHYDRASE IX LIGANDS” (priority 2021, published 2025).
Like-named read-outs stand apart in the source and are kept apart here.

Key:
[1] = Extended single-dose toxicity study including safety pharmacology endpoints, i.v. bolus (GLP); type: in vivo, beagle dogs; conditions: for tlast: median; for half-life / clearance / AUC(0-t) / level at 5 min / Vd: beagle, plasma; for half-life: harmonic mean; for level at 5 min: read-out: C5 min; for Vd: read-out: Vss
Procedure: The following parameters and endpoints were evaluated: mortality, clinical observations, body weights, food consumption, body temperature, local reactions, ophthalmology, clinical pathology parameters (hematology, coagulation, clinical chemistry, and urinalysis), cardiovascular and respiratory safety pharmacology endpoints along with FOB evaluation, organ weights, and macroscopic and microscopic examinations, and TK parameters. The animals from subset A (3 males and 3 females per group) were sampled for toxicokinetics (TK) at: pre-dose, 5 min, 15 min, 30 min, 1 h, 2 h, 3 h and 6 h. Blood samples were collected in K2EDTA tubes. Plasma was prepared by centrifugation (2500 g for 10 minutes, +4° C.) within 1 hour after collection, and then frozen within 1 hour after centrifugation and stored at −80° C. […] Chromatographic separation was achieved using a Waters Acquity UPLC system with a Waters Acquity HSS T3 C18 2.1×50 mm, 1.8 μm column. Chromatography was conducted at 50° C. at a flow rate of 0.7 mL/min using a mobile phase consisting of A: 1% formic acid in acetonitrile, and B: 1% formic acid in water, according to the following linear gradient: 0 to 0.1 min: 90% B; 0.1 to 4.1 min: from 90% B to 74% B; 4.1 to 4.2 min: from 74% B to 5% B; 4.2 to 4.6 min: 5% B; 4.6 to 4.7 min: from 5% B to 90% B; 4.7-5.1 min; 90% B. Detection was performed using a Sciex API6600 TOF mass spectrometer. Toxicokinetic parameters were estimated from concentration-time data using Phoenix pharmacokinetic software (version 6.4, Certara L. P.). A non-compartmental approach consistent with the bolus intravenous injection was used for parameter estimation.
The test item treatment led to unaffected body weights, weight gains, and food intake. Likewise, no treatment-related abnormalities were reported during ophthalmic examinations, urinalysis, blood biochemistry, coagulation, and hematology investigations. There were no related organ weight changes and macroscopic and microscopic observations at early and late necropsies. Jacketed external telemetry was used to evaluate the potential cardiovascular and respiratory effects in the Subset B. Cardiorespiratory telemetry recordings were performed during the pre-test, Day 1 and 14. The electrocardiogram (ECG) parameters (heart rate, PQ interval duration, QRS complex duration, and QT interval duration) were collected continuously after dosing over 10-minute periods up to 6 h and over 15-minute periods up to 24 h. Miyazaki's QT correction method (Miyazaki, H. & Tagawa, M. Japanese Association for Laboratory Animal Science 2002, 51, 465-75) was used to correct the influence of heart rate. […] Arterial blood pressure parameters (systolic and diastolic blood pressure and mean arterial pressure) were measured continuously during consecutive 30-minute periods at pre-dose and for up to 6 h after dosing and over consecutive 60-minute periods up to 24 h after dosing. The respiratory rate was monitored on the pre-test, Day 1 and Day 14 at 0.5, 1, 2, 3, 4, 6, 8, 12, 16, 20, and 24 h. […] The potential effects on central nervous system parameters were evaluated under restrained and non-restrained conditions using a FOB in Subset A. Neurologic, autonomic, and behavioral investigations were performed in the pre-test, pre-dose, and 1 hour after dosing on Day 1.

[2] = Allometry and prediction of human exposure and PK parameters; conditions: allometry from mouse and dog PK
Procedure: From the variety of CL, Vd and T1/2 determined in the animal studies, the highest and lowest values for each species were retained, and allometry was conducted on all the combinations to obtain a range for each predicted human PK parameter.
The missing input parameters were dealt with as follows. Regarding blood:plasma concentration ratio, the frequent default values of 1.0 and 0.8 were considered and found to make no difference to the outputs, so it was left at 1.0. Plasma protein binding: a free fraction fup of 1 was considered in order to estimate the highest C5 min values.

[3] = dog, iv, 16 ug/kg, Female, 16 μg/kg single i.v. bolus, mean n = 3
[4] = dog, iv, 16 ug/kg, Male, 16 μg/kg single i.v. bolus, mean n = 3
[5] = dog, iv, 80 ug/kg, Female, 80 μg/kg single i.v. bolus, mean n = 3
[6] = dog, iv, 80 ug/kg, Male, 80 μg/kg single i.v. bolus, mean n = 3
[7] = dog, iv, 400 ug/kg, Female, 400 μg/kg single i.v. bolus, mean n = 3
[8] = dog, iv, 400 ug/kg, Male, 400 μg/kg single i.v. bolus, mean n = 3

CC(C)C[C@@H]1NC(=O)[C@H](Cc2cccc(NC(=O)CCCS(N)(=O)=O)c2)NC(=O)[C@H](CC(=O)O)NC(=O)[C@H]2CCCN2C(=O)[C@H](CCC(=O)O)NC(=O)[C@@H](NC(=O)[C@H](CCC(N)=O)NC(=O)CN2CCN(C(=O)CN3CCN(CC(=O)O)CCN(CC(=O)O)CCN(CC(=O)O)CC3)CC2)CSCc2cccc(c2)CSC[C@@H](C(N)=O)NC(=O)[C@H](CO)NC(=O)[C@H](Cc2c[nH]c3ccccc23)NC(=O)[C@H]([C@@H](C)O)NC1=O [DPI-4452, DOTA-PPAc-Gln-[Cys(3MeBn)-Glu-pro-Asp-Af3(Cpsu)-Leu-Thr-Trp-Ser-Cys]-NH2]
human equivalent dose of the NOAEL ([1]; 60 kg human): 13.3 mg
central nervous system effects (FOB) ([1]; 1 hour after dosing, 16, 80, 400 μg/kg): No effects were observed on the central nervous system
tlast ([1]; Female, 16 μg/kg single i.v. bolus): 1 h
tlast ([1]; Female, 80 μg/kg single i.v. bolus): 3 h
AUClast ([1]; Female, 400 μg/kg single i.v. bolus, mean n = 3): 771 ng·h/mL
tlast ([1]; Female, 400 μg/kg single i.v. bolus): 3 h
tlast ([1]; Male, 16 μg/kg single i.v. bolus): 1 h
tlast ([1]; Male, 80 μg/kg single i.v. bolus): 2 h
AUClast ([1]; Male, 400 μg/kg single i.v. bolus, mean n = 3): 854 ng·h/mL
tlast ([1]; Male, 400 μg/kg single i.v. bolus): 3 h
tolerability ([1]; beagle dogs, single i.v. bolus up to 400 μg/kg): well tolerated
half-life ([1]; dog, iv, 16 ug/kg, Female, 16 μg/kg single i.v. bolus): 14.3 min
clearance [1, 3]: 21.2 mL/min/kg
AUC(0-t) ([1]; dog, iv, 16 ug/kg, Female, 16 μg/kg single i.v. bolus, mean n = 3, read-out: AUClast): 12.4 ng·h/mL
level at 5 min [1, 3]: 37.7 ng/mL
Vd [1, 3]: 0.3 L/kg
half-life ([1]; dog, iv, 16 ug/kg, Male, 16 μg/kg single i.v. bolus): 15.5 min
clearance [1, 4]: 18.3 mL/min/kg
AUC(0-t) ([1]; dog, iv, 16 ug/kg, Male, 16 μg/kg single i.v. bolus, mean n = 3, read-out: AUClast): 14 ng·h/mL
level at 5 min [1, 4]: 43.5 ng/mL
Vd [1, 4]: 0.26 L/kg
half-life ([1]; dog, iv, 80 ug/kg, Female, 80 μg/kg single i.v. bolus): 23.2 min
clearance [1, 5]: 9.27 mL/min/kg
AUC(0-t) ([1]; dog, iv, 80 ug/kg, Female, 80 μg/kg single i.v. bolus, mean n = 3, read-out: AUClast): 144 ng·h/mL
level at 5 min [1, 5]: 346 ng/mL
Vd [1, 5]: 0.21 L/kg
half-life ([1]; dog, iv, 80 ug/kg, Male, 80 μg/kg single i.v. bolus): 21.7 min
clearance [1, 6]: 10.1 mL/min/kg
AUC(0-t) ([1]; dog, iv, 80 ug/kg, Male, 80 μg/kg single i.v. bolus, mean n = 3, read-out: AUClast): 132 ng·h/mL
level at 5 min [1, 6]: 332 ng/mL
Vd [1, 6]: 0.21 L/kg
half-life ([1]; dog, iv, 400 ug/kg, Female, 400 μg/kg single i.v. bolus): 21.8 min
clearance [1, 7]: 8.63 mL/min/kg
level at 5 min [1, 7]: 1760 ng/mL
Vd [1, 7]: 0.19 L/kg
half-life ([1]; dog, iv, 400 ug/kg, Male, 400 μg/kg single i.v. bolus): 23.7 min
clearance [1, 8]: 7.88 mL/min/kg
level at 5 min [1, 8]: 1840 ng/mL
Vd [1, 8]: 0.19 L/kg
NOAEL at 14 days ([1]; both sexes, dog, in vivo, iv, beagle dogs, single i.v. bolus): 0.4 mg/kg
AUC(0-t) ([1]; female, dog, iv, 400 ug/kg, females, 400 μg/kg i.v., read-out: mean AUCtlast at the NOAEL): 771 ng·h/mL
cardiovascular and respiratory safety pharmacology ([1]; jacketed external telemetry, 16, 80, 400 μg/kg): no related effect on cardiovascular or respiratory parameters
AUC(0-t) ([1]; male, dog, iv, 400 ug/kg, males, 400 μg/kg i.v., read-out: mean AUCtlast at the NOAEL): 854 ng·h/mL
NOAEL cover of the predicted human dose ([1]; total ligand mass dose 500 μg/patient): more than 25 times
predicted human clearance (CL) [2]: 3.57 to 13.0 mL/min/kg
predicted human terminal half-life (T1/2) [2]: 10.2 to 88.2 min
predicted human volume of distribution (Vd) [2]: 0.189 to 0.455 L/kg
